Patent publication US5385947A, “Octahydrophenanthrene derivatives” (Hoffmann-La Roche Inc., priority 1993, dated 1995)
Where a name gives a salt, the structure may show the parent alone.

Tests used:
mouse = assay: Toxicity (lowest lethal dosage, LLD) in the mouse, p.o.; type: in vivo
From the text: (§1) The thus-determined activity of some compounds in accordance with the invention will be evident from the IC50 values set forth in the following Table; moreover, the Table contains data concerning their toxicity (lowest lethal dosage=LLD in the mouse, p.o.).

[1] = molecular target: specific binding sites of dizocilpine ([3H]-MK801) in the rat cortex; assay: 3H-MK801 (dizocilpine) binding test: inhibition of the binding of dizocilpine to the specific binding sites in rat cortex; conditions: 50 percent inhibition of specific binding of dizocilpine
Procedure: The pharmacological activity of some compounds in accordance with the invention and of rac-cis-4b-(2-amino-ethyl)4b,5,6,7,8,8a,9,10-octahydro-phenanthren-8a-ol was determined in vitro according to the method described in Europ. J. Pharmacol. 135, 261 (1987). According to this method [namely the 3H-MK801 (dizocilpine) binding test] the inhibition of the binding of dizocilpine to the specific binding sites in rat cortex by the respective test substances is determined. The IC50 ("50% inhibiting concentration") is that concentration of the respective test substance which brings about a 50 percent inhibition of the specific binding of dizocilpine to the specific binding sites in the rat cortex.
as §1

## Cl.NCC[C@@]12CCCC[C@]1(O)CCc1c(F)cc(Cl)cc12 (racemic) [rac-cis-4b-(2-Amino-ethyl)-3-chloro-1-fluoro-4b,5,6,7,8,8a,9,10-octahydro-phenanthren-8a-ol hydrochloride]
mouse
  Toxicity LLD (lowest lethal dosage): 1000 mg/kg
[1]
  IC50: 107 nM

## Cl.NCC[C@@]12CCCC[C@]1(O)CCc1ccc(Cl)cc12 (racemic) [rac-cis-4b-(2-Amino-ethyl)-3-chloro-4b,5,6,7,8,8a,9,10-octahydro-phenanthren-8a-ol hydrochloride]
mouse
  Toxicity LLD (lowest lethal dosage): 500 mg/kg
[1]
  IC50: 84.7 nM

## Cl.NCC[C@@]12CCCC[C@]1(O)CCc1ccccc12 (racemic) [rac-cis-4b-(2-Amino-ethyl)-4b,5,6,7,8,8a,9,10-octahydro-phenanthren-8a-ol hydrochloride]
mouse
  Toxicity LLD (lowest lethal dosage): 250 mg/kg
[1]
  IC50: 93 nM

## Cl.NCC[C@@]12CCCC[C@]1(O)CCc1ccc(O)cc12 (racemic) [rac-cis-4b-(2-Amino-ethyl)-4b,5,6,7,8,8a,9,10-octahydro-phenanthrene-3,8a-diol hydrochloride]
mouse
  Toxicity LLD (lowest lethal dosage): 1000 mg/kg
[1]
  IC50: 73.4 nM

## CN(C)CC[C@@]12CCCC[C@]1(O)CCc1ccccc12 (racemic) [rac-cis-4b-(2-Dimethylamino-ethyl)-4b,5,6,7,8,8a,9,10-octahydro-phenanthren-8a-ol hydrochloride]
[1]
  IC50: 453 nM

## CN(C)CC[C@@]12CCCC[C@]1(O)CCc1ccc(Cl)cc12.Cl (single isomer, unassigned) [(-)-cis-3-Chloro-4b-(2-dimethylamino-ethyl)-4b,5,6,7,8,8a,9,10-octahydro-phenanthren-8a-ol hydrochloride]
mouse
  Toxicity LLD (lowest lethal dosage): 375 mg/kg
[1]
  IC50: 254 nM
